Each structure is given as a SMILES string.

The data set is described as follows: gradient 5% acetonitrile 3 min, to 50% in 2 min, to 85% in 15 min, held 3 min, 100 µL/min. The following applies: column: Zorbax Extend-C18 2.1 x 50 mm; eluents: water / acetonitrile, 0.1% formic acid. Put shortly: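 Using water and acetonitrile that each contained 0.1% formic acid, mixtures of ~100 pure standards were separated at 100 μL/min on a Zorbax Extend-C18 column (2.1 × 50 mm, 1.8 μm). The HPLC fed a quadrupole time-of-flight mass spectrometer working in positive and negative ionization mode, with dead and dwell volumes of 40 μL and 900 μL. Data were acquired over 3 months. Retention time was read from computationally picked adduct peaks after manual inspection of each.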
As to `Cc1nc2c([nH]1)CCN(C(=O)c1ccc(NC(=O)c3ccccc3-c3ccccc3)cc1)c1ccccc1-2`, the RP-LC retention time came to 795 s.
Compound `CCc1nc(-c2csc(S(=O)(=O)N3CCCC(C(=O)N4CCc5ccccc5C4)C3)c2)no1` (centres undefined) gave an RP-LC retention time of 1060 s.
`COc1ccc(CCNC(=O)CN2C(=O)NC3(CCCCC3)C2=O)cc1OC` registered an RP-LC retention time of 691 s.
The compound `CCOc1ccccc1NC(=O)c1cc2c(=O)n(CC(C)C)c3ccccc3n2n1` registered an RP-LC retention time of 1350 s.
In turn, `COc1ccccc1N1CCN(c2cc(SCC(=O)Nc3ccc(Cl)cc3)ncn2)CC1` came in with an RP-LC retention time of 1080 s.
`COc1ccc(OC)c(NC(=O)NC2CCN(c3cc(C)cc(C)c3)C2=O)c1` (centres undefined) yielded an RP-LC retention time of 887 s.
Regarding `CCOc1nc2ccccc2nc1N1CCCC(C(=O)Nc2cccc(Cl)c2C)C1` (centres undefined), the RP-LC retention time came to 1310 s.
Compound `CC(NC(=O)C(=O)N1CCOCC1)C(c1cccs1)N1CCN(Cc2ccccc2)CC1` (centres undefined) registered an RP-LC retention time of 600 s.
Next, `O=C(NCCCc1ccccc1)C1CCCN(c2nccnc2Sc2ccccc2)C1` (centres undefined): 1090 s; `O=C(Cn1c(=O)c2cccn2c2ccc(F)cc21)N1CCCCCC1`: 840 s; `CCc1nnc(-c2ccc3ccn(CC(=O)NCCc4ccc(OC)c(OC)c4)c3c2)o1`: 760 s.
With `CCc1ccc(NC(=O)Cn2ncn3c(C)c(C(=O)NCc4ccccc4)c(C)c3c2=O)cc1`, the RP-LC retention time stood at 863 s.
The result for `COc1ccc(-c2csc(NC(=O)Nc3c(F)cccc3F)n2)cc1OC` reads 770 s; that for `Cc1nc(-c2cccc(NC(=O)c3cncc(Br)c3)c2)no1`, 834 s.
`CCC(=O)Nc1ccc(CCc2nc3ccc(C(=O)NCc4ccco4)cc3[nH]2)cc1` came in with an RP-LC retention time of 597 s.
Regarding `COC(=O)c1cc2c(=O)n(-c3ccc4c(c3)OCCO4)ccc2nc1C`, the RP-LC retention time came out at 780 s.
With `CCOCCCNCc1ccc(-c2ccc(F)cc2)o1`, the RP-LC retention time is 672 s.
In turn, `O=C(Nc1nc(-c2ccc(Cl)c(Cl)c2)cs1)c1ccc(F)c(F)c1` yielded an RP-LC retention time of 1260 s.
Compound `Cc1cccc(Oc2nccnc2N2CCC(C(=O)NC3CCCCCC3)CC2)c1` showed an RP-LC retention time of 1110 s.
The compound `CCn1cnc(S(=O)(=O)N2CCC(C(=O)NCc3ccc(C)cc3)CC2)c1` registered an RP-LC retention time of 797 s.
In turn, `CCCCNC(=O)CSc1cc(N2CCC(C(=O)NC3CC3)CC2)ncn1` gave an RP-LC retention time of 615 s.
For the compound `CCOc1ccc(OCC)c(NS(=O)(=O)c2cc(-c3c(CC)noc3NC(C)=O)ccc2C)c1`, the RP-LC retention time was determined as 932 s.
In turn, `Cc1ccc(NC(=O)N2C[C@@H](F)C[C@H]2C(=O)N2CCCCC2)cc1F` showed an RP-LC retention time of 755 s.
For `COc1cc(Nc2nc(C(=O)N3CCCCC3)cc3occc23)cc(OC)c1OC`, the RP-LC retention time was 808 s.
Compound `CCOc1ccc(CNC(=O)c2cc(S(=O)(=O)N3CCCC3)c(C)n2C)cc1` returned an RP-LC retention time of 902 s.
Regarding `O=C(CSc1nnnn1-c1ccccc1)NCCc1ccc2c(c1)OCCO2`, the RP-LC retention time turned out to be 745 s.
Take `CCC(C(=O)NC1CC1)n1nc(C)c2c(C)n(-c3ccccc3)nc2c1=O` (centres undefined): the RP-LC retention time was 735 s.
For `CCc1nnc([C@@H]2CC(F)(F)CN2C(=O)c2ccc3nc[nH]c3c2)o1`, the RP-LC retention time came to 540 s.
For `O=C(Nc1ccc(Cl)cc1)C1(c2cccs2)CCOCC1`, the RP-LC retention time was 976 s.
The result for `Cc1ccc(NC(=O)C2CC(=O)N(c3ccc4oc(C)nc4c3)C2)c(C)c1` (centres undefined) reads 741 s.
Compound `CCc1ccc2c(c1)cc(S(=O)(=O)c1ccccc1)c(=O)n2CC(=O)NC(C)CC` (centres undefined) returned an RP-LC retention time of 945 s.
Consider `Cc1ccc(CNC(=O)c2nnc(-c3ccc(S(=O)(=O)N4CCC(C)CC4)cc3)o2)cc1`, for which the RP-LC retention time was found to be 1100 s.
Compound `Cc1cccc(-c2ncccc2CNS(=O)(=O)c2cc(F)cc(F)c2)c1` registered an RP-LC retention time of 776 s.
Next, `Cc1cc(S(=O)(=O)N2CC(F)(F)C[C@H]2CN2CCc3ccccc3C2)ccc1F`: 790 s.
Regarding `CCn1nc(C)c(CCNC(=O)c2ccc3nc(Cc4ccccc4)oc3c2)c1C`, the RP-LC retention time stood at 720 s.
`Cn1ncc2c(N3CCSCC3)nc(C(=O)NCc3ccc(C(F)(F)F)cc3)nc21` returned an RP-LC retention time of 907 s.
Compound `CCc1nc2c(NC(=O)c3ccc(Cl)s3)cccn2n1` returned an RP-LC retention time of 941 s.
The compound `Cc1sc(NC(=O)c2ccccc2Cl)nc1-c1ccc2c(c1)N(C)C(=O)CO2` registered an RP-LC retention time of 968 s.
The result for `Cc1ccoc1C(=O)N1C[C@@H](CO)[C@H](c2nc(C3CC3)no2)C1` reads 688 s; that for `CCN(CC)S(=O)(=O)c1ccc2c(c1)N(CC(=O)NC)C(=O)C1CCCCN21` (centres undefined), 753 s; that for `O=C1CCCc2cc(S(=O)(=O)N3CCCC3C(=O)NC3CCCCCC3)ccc2N1` (centres undefined), 782 s.
In turn, `O=C(COc1ccccc1)N1CCN(Cc2noc3ccccc23)CC1` showed an RP-LC retention time of 708 s.
Next, `O=C(NCCn1c(-c2ccncc2)nc2cccnc21)Nc1ccccc1Cl`: 624 s; `CCCn1cc(C(=O)Nc2cccc(C)c2)c(S(=O)(=O)N2CCSCC2)n1`: 1120 s.
`CCOc1ccccc1CNC(=O)C1CCN(S(=O)(=O)c2ccc3c(c2)NC(=O)CO3)CC1` had an RP-LC retention time of 757 s.
As to `CCOC(=O)N1CCC(NS(=O)(=O)CCCOc2ccc(F)cc2)CC1`, the RP-LC retention time stood at 758 s.
In the case of `O=C1CCCN1Cc1nc(-c2ccc(F)c(Cl)c2)no1`, the RP-LC retention time was 853 s.
The result for `CCN1CCCn2cc(S(=O)(=O)Nc3ccc(F)cc3Cl)cc2C1=O` reads 738 s; that for `COc1ccc(C2(C(=O)N3CC(c4ncc(C)n4Cc4cccnc4)C3)CC2)cc1`, 593 s.
`CCc1noc(NC(C)=O)c1-c1ccc(OC)c(S(=O)(=O)Nc2ccc(F)cc2F)c1` gave an RP-LC retention time of 794 s.
Regarding `CC(=O)N1c2ccc(S(=O)(=O)N3CCCCC3)cc2CC1C(=O)N1CCCC1` (centres undefined), the RP-LC retention time was found to be 743 s.
`O=C(NCC1CC1)c1cn(C2CN(C(=O)CCc3c[nH]c4ccccc34)C2)nn1` registered an RP-LC retention time of 712 s.
With `COc1cccc2cc(C(=O)N3CCN(c4ccccn4)CC3)oc12`, the RP-LC retention time is 576 s.
Compound `COc1ccc2[nH]cc(CCNC(=O)CC3CCN(C(=O)C4CCCCC4)CC3)c2c1` registered an RP-LC retention time of 757 s.
Turning to `Cc1noc(C)c1CNC(=O)Cc1ccc(F)cc1`, the RP-LC retention time worked out at 713 s.
On to `Cc1ccccc1CNC(=O)c1nnc(-c2ccc(S(=O)(=O)N3CCC(C)CC3)cc2)o1`, for which the RP-LC retention time worked out at 1100 s.
On to `Cc1ccc(C)c(N2C(=O)CC(N3CCC(C(N)=O)CC3)C2=O)c1` (centres undefined), for which the RP-LC retention time is 601 s.
`CCc1ccc(C(=O)NC2CCN(c3cc(-c4cccs4)[nH]n3)C2)cc1` (centres undefined) returned an RP-LC retention time of 730 s.
For `CCCc1ccc(S(=O)(=O)N2CCc3c(c(-c4nnc(-c5ccccc5)o4)nn3C)C2)cc1`, the RP-LC retention time amounted to 1090 s.
On to `O=C(NCC1(c2cccs2)CCOCC1)C(=O)Nc1ccc2c(c1)OCCO2`, for which the RP-LC retention time was 802 s.
`Cc1nc(CCNC(=O)[C@H]2CCCN2C(=O)c2ccccc2)cs1` registered an RP-LC retention time of 622 s.
`CC(C)(O)[C@@H]1[C@@H]2OC(=O)[C@H]1[C@]1(O)C[C@H]3O[C@]34C(=O)O[C@H]2[C@]14C` yielded an RP-LC retention time of 709 s.
Consider `Cn1cc(C(=O)Nc2ccc(C(F)(F)F)cc2)c2cccnc21`, for which the RP-LC retention time came to 909 s.
As for `CCOc1cc(=O)n2c(c1C(=O)NCCCOC(C)C)CCCCC2`, the RP-LC retention time was 646 s.
In the case of `CCOC(=O)CC1(NC(=O)Nc2ccc3nc(C)cc(OC)c3c2)CCCCC1`, the RP-LC retention time was found to be 689 s.
In turn, `COc1ccc(-c2cc(C(=O)NCC(c3cccs3)N(C)C)no2)cc1` (centres undefined) gave an RP-LC retention time of 675 s.
Take `O=C(Cn1cccc1-c1nnc(C2CC2)o1)NCCc1ccc(Cl)cc1`: the RP-LC retention time worked out at 862 s.
Take `O=C(C1CC1)N1CCc2sc(S(=O)(=O)Nc3ccc(Cl)cc3)cc2C1`: the RP-LC retention time amounted to 853 s.
The compound `O=C(Nc1ccccc1C(F)(F)F)N1CCc2nc[nH]c2C1` showed an RP-LC retention time of 558 s.
The compound `CCOC(=O)c1c(C)oc2nc(C)nc(Nc3ccc(C)c(F)c3)c12` yielded an RP-LC retention time of 1360 s.
Turning to `Cc1ccc(-n2nc(N3CCN(C(=O)Nc4ccccc4C)CC3)ccc2=O)cc1`, the RP-LC retention time was determined as 787 s.
As to `COCc1cc(=O)n(CC(=O)Nc2ccc(C(C)C)cc2)c(N2CCOCC2)n1`, the RP-LC retention time was determined as 960 s.
Compound `CC1CCCCN1CCNC(=O)c1csc(-c2ccc(N3CCCC3)nc2)n1` (centres undefined) showed an RP-LC retention time of 557 s.
The result for `COc1cccc(-c2cc3n(n2)CCCN(Cc2cccnc2)C3)c1` reads 526 s.
In the case of `CCCn1nc(CNC(=O)c2ccc(C#N)cc2)c2ccccc21`, the RP-LC retention time came out at 844 s.
On to `CCCc1noc(-c2ccnc(-n3ncc(C(=O)Nc4ccc(F)cc4)c3C)c2)n1`, for which the RP-LC retention time turned out to be 1120 s.
With `O=C(Cn1c(=O)c2cccn2c2ccc(F)cc21)N1CCc2ccccc2C1`, the RP-LC retention time worked out at 911 s.
`CCc1ccccc1NC(=O)CSc1nnc2c3cc(-c4ccc(C)cc4)nn3ccn12` registered an RP-LC retention time of 989 s.
`CCOC(=O)C1CCCN(S(=O)(=O)c2cc(-c3nnc(-c4ccccc4)o3)ccc2OC)C1` (centres undefined) gave an RP-LC retention time of 1020 s.

(Values after the METLIN SMRT retention time set (Domingo-Almenara et al. 2019).)
